Data from patent US8586505B2 (SDS Biotech K. K., priority 2009, dated 2013).

Legend:
[1] = system: Pseudoperonospora cubensis; assay: Test of examining control effect on Pseudoperonospora cubensis (potted cucumber plants); format: in vivo; details: 96 h, 10% wettable powder adjusted to 125 ppm, 15 ml/pot sprayed on potted cucumber plants one day before spray inoculation, assessed after 1 day wet chamber and 3 days greenhouse, read-out: Determination of control effect (preventive value) on Pseudoperonospora cubensis
Method in brief: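 Preventive treatment: 125 ppm sample agent solution (from 10% wettable powder) sprayed at 15 ml/pot on 2.5-leaf Sagamihanjiro cucumbers, then P. cubensis inoculated next day at 1.0×10^4 cells/ml. Incubation was 1 day wet at 21° C plus 3 days greenhouse. Lesion area rate compared with untreated gives preventive value (≥60% high).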

Phytophthora infestans = assay: whole plant or invertebrate; format: in vivo; details: in Solanum lycopersicum, 96 h, read-out: Determination of control effect (preventive value)
Sphaerotheca fuliginea = assay: Test of examining control effect on Sphaerotheca fuliginea (potted cucumber plants); format: in vivo; details: Podosphaera fuliginea, 336 h; 10% wettable powder adjusted to 125 ppm, 15 ml/pot sprayed on potted cucumber plants one day before spray inoculation; assessed after 14 days in greenhouse; read-out: Determination of control effect (preventive value) on Sphaerotheca fuliginea
Method in brief: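 Control effect rated high at preventive value 60–100% and low below 60%, from lesion area relative to untreated plants 14 days after spray inoculation with S. fuliginea (1.0×10^5 cells/ml). Compound applied at 125 ppm as wettable-powder spray one day before inoculation, on 2nd-leaf-stage Sagamihanjiro cucumber.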

SMILES	pest or weed control at 125 µg/mL [1] [%]	melting point [°C]	pest or weed control at 125 ppm (Phytophthora infestans) [%]	pest or weed control at 125 µg/mL (Sphaerotheca fuliginea) [%]
Clc1ncnc(NCCC#Cc2ccccc2)c1Cc1ccccc1 [compound 372]	0 to 60	157 to 158	0 to 60	0 to 60
Cc1nc(C#CCCNc2ncnc3sccc23)cs1 [compound 66]	60 to 100	160 to 161	0 to 60	0 to 60
C(#Cc1nccs1)CCNc1ncnc2sccc12 [compound 62]	60 to 100	128 to 129	60 to 100	60 to 100
Fc1cncc(C#CCCNc2ncnc3ccccc23)c1 [compound 193]	60 to 100	145 to 150	60 to 100	60 to 100
C(#Cc1cscn1)CCNc1ncnc2sccc12 [compound 63]	60 to 100	174	60 to 100	60 to 100
OCc1nc(C#CCCNc2ncnc3sccc23)cs1 [compound 70]	60 to 100	193	60 to 100	60 to 100
FC(F)(F)c1cccc(Oc2nc(C#CCCNc3ncnc4ccccc34)cs2)c1 [compound 219]	60 to 100	106 to 108	0 to 60	60 to 100
OCc1ccc(C#CCCNc2ncnc3ccccc23)cc1 [compound 132]	60 to 100	69 to 71	0 to 60	0 to 60
CC(C)[Si](C#CCCNc1ncnc2sccc12)(C(C)C)C(C)C [compound 4]	0 to 60	196 to 198	0 to 60	0 to 60
Clc1cccc(C#CCCNc2ncnc3ccccc23)c1Cl [compound 171]	60 to 100	175 to 176	60 to 100	60 to 100
FC(F)(F)c1ccc(Cl)c(C#CCCNc2ncnc3ccccc23)c1 [compound 176]	60 to 100	144 to 145	0 to 60	60 to 100
OC(c1ccccc1C#CCCNc1ncnc2ccccc12)C(F)(F)F (stereo not drawn) [compound 138]	0 to 60	183 to 187	0 to 60	0 to 60
Fc1cc(Cl)ccc1C#CCCNc1ncnc2ccccc12 [compound 164]	60 to 100	198 to 199	60 to 100	60 to 100
Cc1cc(C)nc(C#CCCNc2ncnc3sccc23)n1 [compound 59]	0 to 60	112 to 113	0 to 60	0 to 60
C(#Cc1csc(-c2ccoc2)n1)CCNc1ncnc2sccc12 [compound 78]	60 to 100	140 to 142	0 to 60	60 to 100
CCOC(=O)c1cnc(C#CCCNc2ncnc3ccccc23)s1 [compound 213]	60 to 100	113 to 114	0 to 60	60 to 100
FC(F)(F)c1ccccc1Oc1nc(C#CCCNc2ncnc3ccccc23)cs1 [compound 218]	60 to 100	159 to 161	0 to 60	0 to 60

SMILES	pest or weed control at 125 µg/mL [1] [%]	melting point [°C]	pest or weed control at 125 ppm (Phytophthora infestans) [%]	pest or weed control at 125 µg/mL (Sphaerotheca fuliginea) [%]
COc1ccc(Cl)cc1C#CCCNc1ncnc2ccccc12 [compound 179]	60 to 100	147 to 149	60 to 100	60 to 100
N#Cc1ccc(Oc2nc(C#CCCNc3ncnc4ccccc34)cs2)cc1 [compound 223]	60 to 100	55 to 57	60 to 100	60 to 100
C(#Cc1csc(-c2cccnc2)n1)CCNc1ncnc2sccc12 [compound 81]	60 to 100	175 to 177	0 to 60	0 to 60
C(#Cc1ccc(OC2CCCCO2)cc1)CCNc1ncnc2ccccc12 (stereo not drawn) [compound 156]	60 to 100	163 to 165	60 to 100	60 to 100
FC(F)(F)c1ccc(C#CCCNc2ncnc3ccccc23)cn1 [compound 198]	60 to 100	134 to 139	0 to 60	60 to 100
FC(F)(F)c1cc(C#CCCNc2ncnc3sccc23)cc(C(F)(F)F)c1 [compound 28]	0 to 60	163 to 166	0 to 60	0 to 60
COc1cccc(Oc2nc(C#CCCNc3ncnc4ccccc34)cs2)c1 [compound 216]	60 to 100	77 to 79	60 to 100	60 to 100
CSc1cccc(C#CCCNc2ncnc3ccccc23)c1 [compound 116]	60 to 100	141 to 142	60 to 100	60 to 100
CS(=O)(=O)c1ccc(C#CCCNc2ncnc3ccccc23)cc1 [compound 120]	60 to 100	164 to 165	60 to 100	60 to 100
Clc1ccc(C#CCCNc2ncnc3ccccc23)c(Cl)c1 [compound 172]	60 to 100	182 to 183	60 to 100	60 to 100
CC(C)(C)[Si](C)(C)C#CCCNc1ncnc2sccc12 [compound 5]	60 to 100	190 to 192	0 to 60	60 to 100
C(#Cc1ccccc1)CC(Nc1ncnc2ccccc12)c1ccccc1 (stereo not drawn) [compound 301, 4-[(1,4-diphenyl-3-butynyl)amino]quinazoline]	0 to 60	141 to 143	0 to 60	0 to 60
Cc1scnc1C#CCCNc1ncnc2sccc12 [compound 65]	60 to 100	148 to 150	60 to 100	60 to 100
C=C(C#CCCNc1ncnc2ccccc12)CO [compound 92]	60 to 100	139	60 to 100	0 to 60
Clc1ccc(C#CCCNc2ncnc3ccccc23)cc1Cl [compound 175]	60 to 100	147 to 148	0 to 60	60 to 100
Clc1cc(NCCC#Cc2ccccc2)ncn1 [compound 358]	0 to 60	118 to 120	0 to 60	60 to 100
